Laboratory results: patent US20020137929A1, “1 - (3-heterocyclylphenyl) isothiourea, -isourea, -guanidine and -amidine herbicidal agents” (Intellectual Property Department, BASF Aktiengesellschaft, priority 1998, published 2002)

Assays:
ECHCG (Barnyardgrass) = experiment: Preemergence herbicidal evaluation; format: in vivo, Echinochloa crus-galli; conditions: preemergence, rated 4-5 weeks after treatment, 0-9 scale
Procedure, shortened: (§1)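 In this greenhouse assay, monocot and dicot seeds are planted in soil and treated prior to emergence with an aqueous acetone spray (about 0.0156-0.500 kg/ha). Plants are assessed visually against control on a 0-9 scale after 4-5 weeks.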

GALAP (Galium) = experiment: Preemergence herbicidal evaluation; format: in vivo, Galium aparine; conditions: preemergence, rated 4-5 weeks after treatment, 0-9 scale
Procedure, shortened: as §1

[1] = test system: GLXMAW (Soybean, Williams); experiment: Preemergence herbicidal evaluation; format: in vivo, Glycine max, (L.) Merr. cv Williams; conditions: preemergence, rated 4-5 weeks after treatment, 0-9 scale
Procedure, shortened: as §1

MOOVA (Monochoria) = experiment: Postemergence weed control under flooded paddy conditions; format: in vivo, Monochoria vaginalis; conditions: postemergence weeds, rated 3 to 4 weeks after treatment
Procedure, shortened: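 Containers holding 3–5 cm weeds and rice at 1.5–2.5 leaves are flooded to 1.5–3 cm above soil. Compound in 50/50 v/v aqueous/acetone is then added directly to the water, about 0.0313–0.500 kg/ha. Plants are kept in the greenhouse and rated 0–9 visually at 3–4 weeks.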

[2] = test system: CHEAL (Lambsquarters, Common); experiment: Postemergence herbicidal evaluation; format: in vivo, Chenopodium album; conditions: postemergence
Procedure, shortened: (§2)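 Compound is applied as a foliar spray to seedlings about two weeks old, formulated in equal parts acetone and water with 0.5% TWEEN 20 and delivered at 40 psi to give about 0.0156–0.500 kg per hectare. Injury is rated visually 0–9 after four to five weeks.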

[3] = test system: IPOHE (Morningglory, Ivyleaf); experiment: Postemergence herbicidal evaluation; format: in vivo, Ipomoea hederacea; conditions: postemergence
Procedure, shortened: as §2

Row | Structure (SMILES) | ECHCG rating (ECHCG (Barnyardgrass); 0.0156 kg/ha) | ECHCG rating (ECHCG (Barnyardgrass); 0.0313 kg/ha) | ECHCG rating (ECHCG (Barnyardgrass); 0.0625 kg/ha) | ECHCG rating (ECHCG (Barnyardgrass); 0.1250 kg/ha) | ECHCG rating (ECHCG (Barnyardgrass); 0.2500 kg/ha) | ECHCG rating (ECHCG (Barnyardgrass); 0.5000 kg/ha) | GALAP rating (GALAP (Galium); 0.0156 kg/ha) | GALAP rating (GALAP (Galium); 0.0313 kg/ha) | GALAP rating (GALAP (Galium); 0.0625 kg/ha) | GALAP rating (GALAP (Galium); 0.2500 kg/ha) | GALAP rating (GALAP (Galium); 0.5000 kg/ha) | GLXMAW rating ([1]; 0.0156 kg/ha) | GLXMAW rating ([1]; 0.0313 kg/ha) | GLXMAW rating ([1]; 0.0625 kg/ha) | GLXMAW rating ([1]; 0.1250 kg/ha) | GLXMAW rating ([1]; 0.2500 kg/ha) | GLXMAW rating ([1]; 0.5000 kg/ha) | Herbicidal rating MOOVA (MOOVA (Monochoria); Rate 0.0313 kg/ha) | Herbicidal rating MOOVA (MOOVA (Monochoria); Rate 0.0625 kg/ha) | Herbicidal rating MOOVA (MOOVA (Monochoria); Rate 0.1250 kg/ha) | other results
1 | CC(C)OC(=O)CC1SC(=Nc2cc(-n3c(=O)cc(C(F)(F)F)n(C)c3=O)c(F)cc2Cl)N(C)C1=O (centres unmarked) [Compound 89, Isopropyl 2-{{2-chloro-5-[3,6-dihydro-3-methyl-2,6-dioxo-4-(trifluoromethyl)-1(2H)-pyrimidinyl]-4-fluorophenyl}imino}-3-methyl-4-oxo-5-thiazolidineacetate] | 0.0 | 0.0 | 0.0 | 2.0 | 5.5 | 9.0 | 0.0 | 0.0 | 0.0 | 8.5 | 9.0 | 0.0 | 0.0 | 1.0 | 2.0 | 8.5 | 9.0 | 9.0 | 9.0 | 9.0 | GALAP rating (GALAP (Galium); 0.1250 kg/ha): 4.5; Herbicidal rating MOOVA (MOOVA (Monochoria); Rate 0.2500 kg/ha): 9.0; CHEAL herbicidal rating ([2]; rate 0.0158 kg/ha): 4.0; CHEAL herbicidal rating ([2]; rate 0.0313 kg/ha): 9.0; CHEAL herbicidal rating ([2]; rate 0.0625 kg/ha): 9.0; CHEAL herbicidal rating ([2]; rate 0.1250 kg/ha): 9.0; IPOHE herbicidal rating ([3]; rate 0.0158 kg/ha): 9.0; IPOHE herbicidal rating ([3]; rate 0.0313 kg/ha): 9.0; IPOHE herbicidal rating ([3]; rate 0.0625 kg/ha): 9.0; IPOHE herbicidal rating ([3]; rate 0.1250 kg/ha): 9.0
2 | CCOC(=O)CN1C(=O)C(CC(=O)NO)S/C1=N/c1cc(-n2c(=O)cc(C(F)(F)F)n(C)c2=O)c(F)cc1Cl (centres unmarked) [Compound 98, Ethyl 2-{{2-chloro-5-[3,6-dihydro-3-methyl-2,6-dioxo-4-(trifluoromethyl)-1(2H)-pyrimidinyl]-4-fluorophenyl}imino}-5-[(hydroxycarbamoyl)methyl]-4-oxo-3-thiazolidineacetate] | 0.0 | 0.0 | 0.0 | 1.0 | 1.0 | 2.0 | 1.0 | 0.0 | 6.0 | 7.0 | 7.0 | 0.0 | 0.0 | 1.0 | 1.0 | 4.0 | 5.0 | 9.0 | 9.0 | 9.0 | Herbicidal rating MOOVA (MOOVA (Monochoria); Rate 0.2500 kg/ha): 9.0; CHEAL herbicidal rating ([2]; rate 0.0156 kg/ha): 0.0; CHEAL herbicidal rating ([2]; rate 0.0313 kg/ha): 1.0; CHEAL herbicidal rating ([2]; rate 0.0625 kg/ha): 3.0; CHEAL herbicidal rating ([2]; rate 0.1250 kg/ha): 9.0; IPOHE herbicidal rating ([3]; rate 0.0156 kg/ha): 3.0; IPOHE herbicidal rating ([3]; rate 0.0313 kg/ha): 3.0; IPOHE herbicidal rating ([3]; rate 0.0625 kg/ha): 9.0; IPOHE herbicidal rating ([3]; rate 0.1250 kg/ha): 9.0
